Measurements: PMC8635440 (Science Advances, 2021)
Positions of bridges follow the written chain, without caps; N, C: chain ends. Non-standard residues stand in square brackets, D forms with d. Residues, ends and D or L forms follow the SMILES beside them.

Columns and labels:
retromer holo-complex = retromer holo-complex (Homo sapiens, UniProt O75436+Q96QK1+Q9UBQ0); test: Differential scanning fluorimetry of retromer; format: binding; conditions: DSF
Vps29 = Vps29 (Homo sapiens, UniProt Q9UBQ0); test: Differential scanning fluorimetry of Vps29; format: binding; conditions: DSF, 20-fold molar excess
TBC1D5TBC into Retromer = TBC1D5TBC into Retromer (Homo sapiens, UniProt O75436+Q96QK1+Q9UBQ0); test: ITC of TBC1D5TBC into retromer in presence of cyclic peptide; format: binding; conditions: native 370 nM
SNX27PDZ into Retromer = SNX27PDZ into Retromer (Homo sapiens, UniProt O75436+Q96QK1+Q9UBQ0); test: ITC of SNX27PDZ into retromer in presence of cyclic peptide; format: binding, mouse SNX27; conditions: 1.3 mM SNX27PDZ into 30 μM retromer + 150 μM peptide; native (DMSO) 13.0 ± 0.5
[1] = test system: TBC1D5 localization in HeLa cells; test: TBC1D5 endosomal localization after SLO delivery of peptide; format: cell-based, human; conditions: 2 hours recovery, colocalization with SNX1
[2] = molecular target: GST-TBC1D5TBC binding to retromer (Homo sapiens, UniProt O75436+Q96QK1+Q9UBQ0); test: GST pull-down assay; conditions: GST pulldown, purified proteins
Solubility observations = format: physicochemical; conditions: ITC buffer
[3] = molecular target: Vps26A9-298_Vps351-390 (Δ C-term. tail complex) (Homo sapiens, UniProt O75436+Q96QK1); test: ITC binding to Vps26A ΔC-term. tail subcomplex; conditions: 25°C, Vps26A C-terminal tail removed
Vps26BΔC-Vps35_1–390 = Vps26BΔC-Vps35_1–390 (UniProt Q8C0E2+Q96QK1); test: ITC binding to Vps26B ΔC-term. tail subcomplex; set-up: species or system mouse Vps26B, human Vps35
zfRetromer = zfRetromer (Danio rerio, UniProt A4QP42+Q6TNP8); test: ITC binding to zebrafish retromer
ctRetromer = molecular target: T1, ctRetromer (Thermochaetoides thermophila, UniProt G0S0E6+G0S709); test: ITC binding to C. thermophilum retromer; set-up: species or system Chaetomium thermophilum; conditions: 25°C
T1 sequence (G0S709 1-869): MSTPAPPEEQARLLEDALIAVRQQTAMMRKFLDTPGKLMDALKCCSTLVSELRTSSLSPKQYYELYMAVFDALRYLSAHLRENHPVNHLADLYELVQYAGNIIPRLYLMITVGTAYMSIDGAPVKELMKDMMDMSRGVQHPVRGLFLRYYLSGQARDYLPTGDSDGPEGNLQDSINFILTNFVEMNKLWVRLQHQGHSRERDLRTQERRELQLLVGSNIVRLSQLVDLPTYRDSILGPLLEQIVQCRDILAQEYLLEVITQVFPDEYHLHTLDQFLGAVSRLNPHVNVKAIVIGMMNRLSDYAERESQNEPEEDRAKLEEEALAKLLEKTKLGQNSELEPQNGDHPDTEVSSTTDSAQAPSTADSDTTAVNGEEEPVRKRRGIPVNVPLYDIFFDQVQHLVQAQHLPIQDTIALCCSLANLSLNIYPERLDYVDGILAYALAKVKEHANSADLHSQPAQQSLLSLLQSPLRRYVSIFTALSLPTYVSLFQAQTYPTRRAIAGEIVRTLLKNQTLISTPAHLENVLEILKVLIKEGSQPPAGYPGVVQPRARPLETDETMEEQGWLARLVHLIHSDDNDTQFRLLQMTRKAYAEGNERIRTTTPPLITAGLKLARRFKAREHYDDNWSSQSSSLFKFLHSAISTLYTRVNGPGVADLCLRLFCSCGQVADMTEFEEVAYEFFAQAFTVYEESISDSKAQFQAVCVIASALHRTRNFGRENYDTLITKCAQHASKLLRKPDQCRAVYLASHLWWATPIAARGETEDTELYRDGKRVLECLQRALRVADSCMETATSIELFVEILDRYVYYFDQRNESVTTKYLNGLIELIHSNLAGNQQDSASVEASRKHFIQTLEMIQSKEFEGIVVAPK
T1 sequence (G0S0E6 1-316): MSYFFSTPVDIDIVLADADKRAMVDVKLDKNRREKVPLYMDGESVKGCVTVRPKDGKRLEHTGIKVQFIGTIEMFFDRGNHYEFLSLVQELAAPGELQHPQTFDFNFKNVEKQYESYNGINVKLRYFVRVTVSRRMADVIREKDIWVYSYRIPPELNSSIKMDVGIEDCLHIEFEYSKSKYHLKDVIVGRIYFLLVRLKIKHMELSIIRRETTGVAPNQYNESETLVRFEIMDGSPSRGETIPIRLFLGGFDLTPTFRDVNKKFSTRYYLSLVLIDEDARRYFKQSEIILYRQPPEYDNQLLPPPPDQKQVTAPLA

[4] = molecular target: Vps26A-Vps35_1–390 subcomplex (Homo sapiens, UniProt O75436+Q96QK1); test: Differential scanning fluorimetry of Vps26A-Vps35 1-390; format: binding; conditions: DSF
Vps26A = Vps26A (Homo sapiens, UniProt O75436); test: Differential scanning fluorimetry of Vps26A; format: binding; conditions: DSF, control experiment
[5] = molecular target: retromer and its ligands in HeLa cell lysates (Homo sapiens, UniProt O75436+Q96QK1+Q9UBQ0); test: Biotinylated cyclic peptide pull-down from HeLa cell lysates; format: binding; conditions: streptavidin agarose, Western blotting
[6] = molecular target: Rab7a with TBC1D5TBC and retromer (Homo sapiens, UniProt O75436+Q96QK1+Q9UBQ0); test: GTPase activity assay; format: biochemical; conditions: 10 μM Rab7a, 3 μM TBC1D5TBC, 6 μM retromer, 60 μM peptide
[7] = molecular target: retromer binding to SNX3–CI-MPR cargo-PtdIns3P liposomes (Homo sapiens, UniProt O75436+Q96QK1+Q9UBQ0); test: Liposome binding assay; conditions: Folch I liposomes, 7 μM retromer-SNX3
[8] = molecular target: human retromer complex (Vps35-[change]-Vps29) (human) (UniProt Q96QK1); test: ITC

Compound: N=C(N)SCc1ccc(CSC(=N)N)s1 [R55]
- impact on thermal stability (Tm) of retromer (retromer holo-complex; 3 µM Retromer, 60 μM compound or 30-fold molar excess of peptide): unable to detect significant improvement
- impact on Retromer stability (retromer holo-complex; 1 mM (>300-fold molar excess)): little impact

Compound: CC[C@H](C)[C@@H]1NC(=O)[C@H]([C@@H](C)CC)NC(=O)[C@@H](Cc2ccc(O)cc2)NC(=O)CSC[C@@H](C(N)=O)NC(=O)[C@H](CCCNC(=N)N)NC(=O)[C@H](CCCCN)NC(=O)[C@H](CC(C)C)NC(=O)[C@H](CO)NC(=O)[C@H](CO)NC(=O)[C@H](CC(C)C)NC(=O)[C@H](Cc2ccccc2)NC(=O)[C@H](C(C)C)NC(=O)CNC(=O)[C@H](CC(C)C)NC(=O)[C@@H]2CCCN2C(=O)[C@H]([C@@H](C)O)NC(=O)[C@H](CC(=O)O)NC1=O [RT-D1] ({CH2CO}-[dY]IIDTPLGVFLSSLKRC-NH2; thioether N-17)
- effect on melting temperature (Tm) of Vps29 (Vps29): increased

Compound: CC[C@H](C)[C@@H]1NC(=O)[C@H](CCCNC(=N)N)NC(=O)[C@@H]2CCCN2C(=O)[C@H](Cc2ccccc2)NC(=O)[C@H]([C@@H](C)O)NC(=O)CNC(=O)[C@H](CC(C)C)NC(=O)[C@@H]2CCCN2C(=O)[C@H]([C@@H](C)O)NC(=O)[C@H](Cc2c[nH]c3ccccc23)NC(=O)[C@H](Cc2ccc(O)cc2)NC(=O)[C@H]([C@@H](C)CC)NC(=O)[C@H]([C@@H](C)O)NC(=O)[C@H]([C@@H](C)O)NC(=O)[C@@H](Cc2ccc(O)cc2)NC(=O)CSC[C@@H](C(N)=O)NC(=O)[C@H](CCCNC(=N)N)NC1=O [RT-D2] ({CH2CO}-[dY]TTIYWTPLGTFPRIRC-NH2; thioether N-17)
- effect on melting temperature (Tm) of Vps29 (Vps29): increased

Compound: CC(C)C[C@@H]1NC(=O)CNC(=O)[C@H](CC(C)C)NC(=O)[C@@H]2CCCN2C(=O)[C@H](CC(=O)O)NC(=O)[C@H](Cc2ccc(O)cc2)NC(=O)CNC(=O)[C@@H](Cc2ccc(O)cc2)NC(=O)CSC[C@@H](C(N)=O)NC(=O)[C@H](C)NC(=O)[C@H](Cc2ccccc2)NC(=O)[C@H](Cc2ccc(O)cc2)NC(=O)[C@H](CCCCN)NC1=O [RT-D3] ({CH2CO}-[dY]GYDPLGLKYFAC-NH2; thioether N-13)
- effect on melting temperature (Tm) of Vps29 (Vps29): increased
- Kd (TBC1D5TBC into Retromer): undetectable
- Kd (SNX27PDZ into Retromer): no impact
- effect on TBC1D5 localization to endosomal structures [1]: significant dispersal
- effect on GST-TBC1D5TBC interaction with retromer [2]: inhibited

Compound: CC(C)C[C@@H]1NC(=O)[C@@H]2CCCN2C(=O)[C@H](CC(=O)O)NC(=O)[C@H](Cc2c[nH]c3ccccc23)NC(=O)CNC(=O)[C@@H](Cc2ccc(O)cc2)NC(=O)CSC[C@@H](C(N)=O)NC(=O)[C@H](C(C)C)NC(=O)[C@H](Cc2ccccc2)NC(=O)[C@H](Cc2ccc(O)cc2)NC(=O)[C@H](CC(N)=O)NC(=O)[C@H](C(C)C)NC(=O)[C@H](Cc2ccc(O)cc2)NC1=O [RT-D4] ({CH2CO}-[dY]GWDPLYVNYFVC-NH2; thioether N-13)
- solubility for ITC experiments (Solubility observations): not sufficiently soluble for ITC experiments

Compound: CC[C@H](C)[C@@H]1NC(=O)[C@H](Cc2ccc(O)cc2)NC(=O)CSC[C@@H](C(N)=O)NC(=O)CNC(=O)[C@H](Cc2c[nH]cn2)NC(=O)[C@H](CCCNC(=N)N)NC(=O)[C@H](CC(N)=O)NC(=O)[C@@H]2CCCN2C(=O)[C@H](Cc2ccccc2)NC(=O)[C@H]([C@@H](C)O)NC(=O)CNC(=O)[C@H](CC(C)C)NC(=O)[C@@H]2CCCN2C(=O)[C@H]([C@@H](C)O)NC(=O)[C@H](CCCCN)NC1=O [RT-L1] ({CH2CO}-YIKTPLGTFPNRHGC-NH2; thioether N-15)
- effect on melting temperature (Tm) of Vps29 (Vps29): increased

Compound: CC[C@H](C)[C@@H]1NC(=O)[C@H]([C@@H](C)O)NC(=O)[C@@H]2CCCN2C(=O)[C@H](CC(C)C)NC(=O)[C@H](Cc2ccc(O)cc2)NC(=O)CSC[C@@H](C(N)=O)NC(=O)[C@H](CC(C)C)NC(=O)[C@@H]2CCCN2C(=O)[C@H](Cc2c[nH]cn2)NC(=O)[C@H](Cc2c[nH]c3ccccc23)NC(=O)[C@H](CC(C)C)NC(=O)[C@H](Cc2c[nH]cn2)NC(=O)CNC(=O)[C@H](C(C)C)NC(=O)CNC(=O)[C@H]([C@@H](C)O)NC1=O [RT-L2] ({CH2CO}-YLPTITGVGHLWHPLC-NH2; thioether N-16)
- effect on melting temperature (Tm) of Vps29 (Vps29): increased

Compound: CC(C)C[C@@H]1NC(=O)[C@H](Cc2ccc(O)cc2)NC(=O)CSC[C@@H](C(N)=O)NC(=O)[C@H](CC(N)=O)NC(=O)[C@H](C(C)C)NC(=O)[C@H](Cc2ccc(O)cc2)NC(=O)[C@H](Cc2ccccc2)NC(=O)[C@H](CC(C)C)NC(=O)[C@H](CCCNC(=N)N)NC(=O)[C@H](C(C)C)NC(=O)[C@H](Cc2ccc(O)cc2)NC(=O)[C@H](CC(C)C)NC(=O)[C@@H]2CCCN2C(=O)[C@H](CC(=O)O)NC(=O)[C@H](Cc2ccccc2)NC(=O)[C@H](CCC(=O)O)NC1=O [RT-L3] ({CH2CO}-YLEFDPLYVRLFYVNC-NH2; thioether N-16)
- solubility for ITC experiments (Solubility observations): not sufficiently soluble for ITC experiments

Compound: CC[C@H](C)[C@@H]1NC(=O)[C@H](Cc2c[nH]c3ccccc23)NC(=O)[C@H](Cc2ccc(O)cc2)NC(=O)CSC[C@@H](C(N)=O)NC(=O)[C@H]([C@@H](C)O)NC(=O)[C@H](CO)NC(=O)[C@H](C(C)C)NC(=O)[C@H](Cc2ccc(O)cc2)NC(=O)[C@H](CCCNC(=N)N)NC(=O)[C@H](Cc2ccc(O)cc2)NC(=O)[C@H]([C@@H](C)O)NC(=O)[C@H]([C@@H](C)O)NC(=O)[C@H](Cc2c[nH]c3ccccc23)NC(=O)[C@H](CO)NC(=O)[C@H](CC(N)=O)NC(=O)[C@H](CO)NC1=O [RT-L4] ({CH2CO}-YWISNSWTTYRYVSTC-NH2; thioether N-16)
- Kd [3]: ~40 nM
- Kd (Vps26BΔC-Vps35_1–390): ~40 nM
- Kd (zfRetromer): 88 nM
- Kd (ctRetromer): 5000 nM
- effect on melting temperature (Tm) of Vps29 (Vps29): did not affect
- increase in Tm for the Vps26A-Vps35_1–390 subcomplex [4]: 8 °C
- effect on thermal stability of Vps26A alone (Vps26A): did not affect
- retromer ligands recovered with peptide-bound retromer [5]: able to interact with TBC1D5, VARP, Fam21, SNX27, and the SNX3–DMT1-II complex
- GAP-stimulated GTP hydrolysis of Rab7a [6]: slight improvement
- retromer binding to SNX3–CI-MPR cargo-PtdIns3P liposomes [7]: subtle reduction
- effect on TBC1D5 localization to endosomal structures [1]: no discernible effect

Compound: TBC domain of human TBC1D5 (from UniProt Q92609 1-795) (domain or fragment)
- Kd [8]: 370 nM
